Data: publication PMC10766536 (The Journal of Antibiotics, 2023)
Entries after “also recorded” stand apart in the source; their conditions may differ.

What was measured:
hERG = hERG (Homo sapiens, UniProt Q12809); assay: in vitro
[1] = Human plasma protein binding
[2] = human
in vitro [3] = conditions: SD, rat
[4] = test system: Salmonella typhimurium ATCC 14028; assay: S. typhimurium intracellular killing assay in THP-1 macrophages; format: cell-based; conditions: Salmonella typhimurium ATCC 14028 in THP-1 macrophages, top conc. 1e−4 M
Procedure: (§1) THP-1 monocytic cell line (American Type Culture Collection) was grown in media (RPMI + 10% FBS + 1% Penicillin/Streptomycin), then seeded at a density of 1e5 cells/well in a 96 well plate and differentiated into macrophages for 3 days prior to infection using 200 nM PMA. Overnight culture of S. aureus or S. typhimurium was grown in RPMI or TSB, respectively, washed twice with PBS and resuspended at 1e7 cfu/ml in PBS. THP-1 were washed with warm media (RMPI without FBS) to remove the Penicillin/Streptomycin and then infected with the bacterial suspension at a multiplicity of infection of 10:1 (S. aureus:macrophages) or 5:1 (S. typhimurium:macrophages). Plates were centrifuged at 300 × g for 5 min to synchronize adhesion of the bacteria to the macrophages, then incubated at 37 °C for 2 h for S. aureus infection or 1 h for S. typhimurium infection. Free-floating bacteria were removed by washing twice with warm media and the remaining extracellular bacteria were killed by addition of media containing gentamicin (50 ug/ml). After 1 h, media was aspirated and the indicated compound was added to the S. aureus-infected macrophages in a dilution series starting at 1e−6 M, with 1:5 dilutions for 6 points (1.0 × 10^−6 M, 2.0 × 10^−7 M, 4.0 × 10^−8 M, 8.0 × 10^−9 M, 1.6 × 10^−9 M, and 3.2 × 10^−10 M) or to the to the S. typhimurium-infected macrophages in a dilution series starting at 1e−4 M, with 1:3 dilutions followed by 1:10 dilutions for 6 points (1.0 × 10^−4 M, 3.0 × 10^−5 M, 1.0 × 10^−5 M, 1.0 × 10^−6 M, 1.0 × 10^−7 M, and 1.0 × 10^−8 M). The compounds were added in media containing 50 µg/ml gentamicin to prevent extracellular growth of bacteria. After 2 h, plates were washed twice with warm RPMI without FBS, and 100 μl of THP-1 lysis buffer (0.1% Triton in PBS) was added to each well. Bacterial survival was enumerated by colony forming units (cfu) through serial dilution and plating onto tryptic soy agar (TSA, Teknova) plates.

[5] = test system: Salmonella typhimurium AR-0031; assay: as above; format: cell-based; conditions: Salmonella typhimurium AR-0031 in THP-1 macrophages, top conc. 1e−4 M
Procedure: as §1

[6] = test system: S. aureus MRSA strain N315; assay: S. aureus IV advanced disseminated infection mouse model, kidney burden; format: in vivo, Balb/c mice
Procedure: (§2) S. aureus MSRA strain NRS384 or N315 (BEI Resources), where indicated, was grown overnight in TSB and sub-cultured to mid-logarithmic phase. […] From 1 to 3 days post-infection, indicated mice were injected subcutaneously with 110 mg/kg vancomycin twice daily where indicated. […] Mice were monitored for weight loss and body conditioning score throughout the infection. At 4 days post-infection, mice were euthanized, and the S. aureus kidney burden was quantified by tissue homogenization followed by enumeration of cfu through serial dilution in PBS and plating onto TSA plates. Data points represent the kidney burden from individual mice tested. Statistical analysis was conducted with GraphPad Prism 9, Version 9.4.1.

[7] = test system: S. aureus MRSA strain NRS384; assay: as above; format: in vivo, Balb/c mice; conditions: for S. aureus kidney burden, efficacy: NRS384
Procedure: as §2

P-gp (MDR1) = P-gp (MDR1) (Homo sapiens, UniProt P08183); assay: in vitro; conditions: dog, MDCK-MDR1
Chain of P-gp (MDR1) (P08183 whole entry): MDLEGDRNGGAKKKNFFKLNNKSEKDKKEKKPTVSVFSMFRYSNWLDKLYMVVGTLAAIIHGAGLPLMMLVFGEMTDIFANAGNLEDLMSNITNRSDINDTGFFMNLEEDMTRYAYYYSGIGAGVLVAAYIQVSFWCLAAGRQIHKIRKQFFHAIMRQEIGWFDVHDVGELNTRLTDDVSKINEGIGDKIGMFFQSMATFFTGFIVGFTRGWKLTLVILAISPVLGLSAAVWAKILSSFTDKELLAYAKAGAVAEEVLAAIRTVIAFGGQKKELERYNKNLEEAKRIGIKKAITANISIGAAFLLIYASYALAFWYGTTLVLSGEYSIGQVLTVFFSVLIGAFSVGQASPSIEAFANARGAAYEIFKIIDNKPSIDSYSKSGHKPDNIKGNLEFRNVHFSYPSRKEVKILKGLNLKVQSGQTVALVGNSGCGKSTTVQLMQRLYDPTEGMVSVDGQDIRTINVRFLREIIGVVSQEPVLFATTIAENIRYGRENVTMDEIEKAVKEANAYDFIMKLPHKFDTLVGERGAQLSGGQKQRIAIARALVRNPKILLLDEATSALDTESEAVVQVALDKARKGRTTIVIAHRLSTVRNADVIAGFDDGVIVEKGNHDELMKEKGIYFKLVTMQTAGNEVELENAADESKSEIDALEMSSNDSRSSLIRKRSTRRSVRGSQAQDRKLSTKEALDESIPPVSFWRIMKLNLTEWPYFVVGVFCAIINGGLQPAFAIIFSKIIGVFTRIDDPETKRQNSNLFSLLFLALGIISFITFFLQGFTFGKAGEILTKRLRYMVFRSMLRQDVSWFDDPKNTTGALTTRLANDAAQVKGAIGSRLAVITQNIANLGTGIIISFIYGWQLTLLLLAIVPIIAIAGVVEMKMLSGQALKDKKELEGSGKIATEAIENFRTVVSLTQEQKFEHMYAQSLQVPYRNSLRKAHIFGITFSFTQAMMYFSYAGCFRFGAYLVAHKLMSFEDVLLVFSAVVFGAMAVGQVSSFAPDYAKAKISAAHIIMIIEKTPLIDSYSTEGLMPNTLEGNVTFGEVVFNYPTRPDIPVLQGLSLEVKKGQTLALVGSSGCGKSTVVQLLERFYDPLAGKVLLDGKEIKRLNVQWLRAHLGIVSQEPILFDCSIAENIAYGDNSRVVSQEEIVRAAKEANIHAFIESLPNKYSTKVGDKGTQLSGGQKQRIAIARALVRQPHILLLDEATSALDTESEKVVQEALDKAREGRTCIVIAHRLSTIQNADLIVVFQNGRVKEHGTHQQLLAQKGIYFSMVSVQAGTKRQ

in vitro [8] = conditions: human, Caco-2
endogenous transporters = assay: in vitro; conditions: human, Caco-2
[9] = test system: Caco-2: endogenous transporters; assay: Caco-2 permeability
S. aureus NRS384 [10] = assay: S. aureus intracellular killing assay in THP-1 macrophages; format: cell-based; conditions: S. aureus NRS384 in THP-1 macrophages, 2 h, top conc. 1e−6 M
Procedure: as §1

[11] = test system: Salmonella typhimurium AR-0031; assay: S. typhimurium broth killing (growth inhibition) assay; conditions: Salmonella typhimurium AR-0031, TSB, 24 h
Description: (§3) To test the potency of rifamycin analogs of the disclosure in vitro, a broth growth inhibition assay was developed.

in vitro [12] = conditions: CD-1, mouse
[13] = test system: Salmonella typhimurium ATCC 14028; assay: S. typhimurium broth killing (growth inhibition) assay; conditions: Salmonella typhimurium ATCC 14028, TSB, 24 h
Description: as §3

[14] = Compound stability in CYP induction assay
S. aureus NRS384 [15] = assay: S. aureus broth killing (growth inhibition) assay; conditions: S. aureus NRS384, TSB, 24 h, OD600
Description: as §3

[16] = target: MDCK-MDR1: overexpression of Pgp (Homo sapiens, UniProt P08183); assay: MDCK-MDR1 permeability and efflux
Chain of MDCK-MDR1: overexpression of Pgp (P08183 whole entry): as above

CYP1A2 = assay: in vitro; conditions: human
CYP3A4 = assay: in vitro; conditions: human
CYP2B6 = assay: in vitro; conditions: human
Sprague Dawley rats = assay: 2-week IV once-a-day toxicity study with 2-week recovery in Sprague Dawley rats
Procedure: A subset from each dose group was maintained for 14 days after the last dose to evaluate delayed toxicity and/or recovery. All animals were observed twice daily for mortality and signs of pain or distress. Detailed clinical observations, body weight measurements and food consumption were conducted weekly; post dose observations (30 min post dose) were conducted daily or as required. Clinical pathology evaluations (hematology, coagulation parameters, and serum chemistry) were performed using samples collected on the day of scheduled sacrifice (main and recovery). At the end of the 14-day dosing period, and at the end of the 14-day recovery period, necropsies were performed on all animals, selected organs were weighed, and tissues were examined macroscopically and microscopically. Toxicokinetic parameters were evaluated on Day 1 and 14.

[17] = 25 mg/kg in combination with vancomycin

Chain of hERG (Q12809 whole entry): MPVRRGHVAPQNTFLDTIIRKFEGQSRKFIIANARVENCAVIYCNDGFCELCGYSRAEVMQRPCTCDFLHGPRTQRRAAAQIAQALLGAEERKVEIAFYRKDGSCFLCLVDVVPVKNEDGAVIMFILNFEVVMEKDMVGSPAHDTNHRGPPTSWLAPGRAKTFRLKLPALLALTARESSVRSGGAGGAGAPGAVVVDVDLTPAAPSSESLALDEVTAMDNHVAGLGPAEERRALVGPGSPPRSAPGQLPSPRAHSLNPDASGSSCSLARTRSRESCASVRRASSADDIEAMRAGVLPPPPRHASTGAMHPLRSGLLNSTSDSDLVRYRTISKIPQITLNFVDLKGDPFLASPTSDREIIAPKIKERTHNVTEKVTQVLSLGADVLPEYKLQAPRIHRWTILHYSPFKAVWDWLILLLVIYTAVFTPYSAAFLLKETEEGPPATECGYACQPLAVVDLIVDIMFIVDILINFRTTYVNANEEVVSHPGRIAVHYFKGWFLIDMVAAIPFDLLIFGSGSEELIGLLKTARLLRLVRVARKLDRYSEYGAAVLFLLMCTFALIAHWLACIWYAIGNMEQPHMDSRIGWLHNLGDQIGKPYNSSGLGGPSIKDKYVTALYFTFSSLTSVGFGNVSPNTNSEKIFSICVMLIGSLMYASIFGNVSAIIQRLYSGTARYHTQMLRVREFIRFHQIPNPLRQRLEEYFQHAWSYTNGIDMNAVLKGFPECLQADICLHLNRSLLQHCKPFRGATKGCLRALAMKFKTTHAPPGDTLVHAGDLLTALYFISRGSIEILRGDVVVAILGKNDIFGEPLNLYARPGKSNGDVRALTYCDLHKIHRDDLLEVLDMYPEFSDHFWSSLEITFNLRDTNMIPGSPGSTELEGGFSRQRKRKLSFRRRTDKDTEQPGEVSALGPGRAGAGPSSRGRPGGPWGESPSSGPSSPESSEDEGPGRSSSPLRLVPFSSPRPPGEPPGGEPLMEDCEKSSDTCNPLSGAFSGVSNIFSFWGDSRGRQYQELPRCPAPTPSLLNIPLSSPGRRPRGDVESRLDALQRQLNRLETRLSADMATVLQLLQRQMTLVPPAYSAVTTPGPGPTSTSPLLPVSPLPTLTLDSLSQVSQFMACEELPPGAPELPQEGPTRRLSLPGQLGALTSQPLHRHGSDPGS

SMILES: COc1cc(N)c(Cl)cc1C(=O)NC1CCN(CCCOc2ccc(F)cc2)CC1OC (centres unmarked) [Cisapride]
- inhibition at 0.09 µM (hERG): 87.6%

SMILES: CO[C@H]1/C=C/O[C@@]2(C)Oc3c(C)c(O)c4c(O)c(c(/C=N/N5CCN(C)CC5)c(O)c4c3C2=O)NC(=O)/C(C)=C\C=C\[C@H](C)[C@H](O)[C@@H](C)[C@@H](O)[C@@H](C)[C@H](OC(C)=O)[C@@H]1C [Compound 1, rifampicin]
- % Protein Bound [1]: 79.1 ± 0.6%
- % Protein Free [1]: 20.9 ± 0.6%
- % Matrix Stability (6 h) [1]: 74.3%
- % Recovery (vs. T0 stability) [2]: 81.9%
- CLint scaled (in vitro [3]; S9 microsomes): < 23.4 mL/min/kg
- remaining at 2 h (in vitro [3]; S9 microsomes): 129%
- Intracellular MIC [4]: No activity
- Intracellular MIC [5]: No activity
- S. aureus kidney burden [6, 17]: to or near the limit of detection
- S. aureus kidney burden, efficacy [7, 17]: effective; also recorded: reduced kidney burden
- S. aureus kidney burden, efficacy ([7]; 25 mg/kg monotherapy): ineffective
- S. aureus kidney burden, efficacy ([7]; doses lower than 0.25 mg/kg in combination with vancomycin): efficacy was reduced to vancomycin alone levels
- Papp A→B (P-gp (MDR1)): 0.287 ×10⁻⁶ cm/s
- Papp B→A (P-gp (MDR1)): 6.25 ×10⁻⁶ cm/s
- recovery (P-gp (MDR1)): 76.5%
- Papp A→B (in vitro [8]): 0.589 ×10⁻⁶ cm/s
- Papp B→A (in vitro [8]): 5.93 ×10⁻⁶ cm/s
- recovery (endogenous transporters): 79.5%
- Mean B-A % Recovery [9]: 80.80%
- Intracellular MIC (S. aureus NRS384 [10]): 1 µM
- Broth MIC [11]: 16 µM
- CLint scaled (in vitro [12]; S9 microsomes): < 45.5 mL/min/kg
- remaining at 2 h (in vitro [12]; S9 microsomes): 125%
- Broth MIC [13]: 16 µM
- Average % Stability [14]: 85.2%
- Broth MIC (S. aureus NRS384 [15]): 0.0156 µM
- Mean B-A % Recovery [16]: 74.40%

SMILES: COC1C=COC2(C)Oc3c(C)c(O)c4c(=O)c(c5oc6cc(OCCN)ccc6nc-5c4c3C2=O)NC(=O)C(C)=CC=CC(C)C(O)C(C)C(O)C(C)C(OC(C)=O)C1C (centres unmarked) [Compound 2]
- Intracellular MIC (S. aureus NRS384 [10]): 1 µM
- Broth MIC (S. aureus NRS384 [15]): 0.412 µM

SMILES: CNCCOc1ccc2nc3c4c5c6c(C)c(O)c4c(=O)c(c-3oc2c1)NC(=O)C(C)=CC=CC(C)C(O)C(C)C(O)C(C)C(OC(C)=O)C(C)C(OC)C=COC(C)(O6)C5=O (centres unmarked) [Compound 3]
- Intracellular MIC (S. aureus NRS384 [10]): 1 µM
- Broth MIC (S. aureus NRS384 [15]): 0.0457 µM

SMILES: COC1C=COC2(C)Oc3c(C)c(O)c4c(=O)c(c5oc6ccc(OCCN(C)C)cc6nc-5c4c3C2=O)NC(=O)C(C)=CC=CC(C)C(O)C(C)C(O)C(C)C(OC(C)=O)C1C (centres unmarked) [Compound 6]
- Intracellular MIC (S. aureus NRS384 [10]): 1 µM
- Broth MIC (S. aureus NRS384 [15]): 0.0625 µM

SMILES: CO[C@H]1/C=C/O[C@@]2(C)Oc3c(C)c(O)c4c(c3C2=O)C2=NC3(CCN(CC(C)C)CC3)NC2=C(NC(=O)/C(C)=C\C=C\[C@H](C)[C@H](O)[C@@H](C)[C@@H](O)[C@@H](C)[C@H](OC(C)=O)[C@@H]1C)C4=O [Rifabutin]
- % Protein Bound [1]: 89.6 ± 0.5%
- % Protein Free [1]: 10.4 ± 0.5%
- % Matrix Stability (6 h) [1]: 104.9%
- % Recovery (vs. T0 stability) [2]: 98.2%
- fold induction (CYP1A2): 2
- CLint scaled (in vitro [3]; s9): 2.35 mL/min/kg
- half-life (in vitro [3]; s9): 19.9 h
- remaining at 2 h (in vitro [3]; s9): 89%
- fold induction (CYP3A4): 2.36
- fold induction (CYP2B6): 2.65
- Papp A→B (P-gp (MDR1)): 3.57 ×10⁻⁶ cm/s
- Papp B→A (P-gp (MDR1)): 16.8 ×10⁻⁶ cm/s
- efflux ratio (P-gp (MDR1)): 4.7
- Papp A→B (in vitro [8]): 11 ×10⁻⁶ cm/s
- Papp B→A (in vitro [8]): 7.15 ×10⁻⁶ cm/s
- efflux ratio (in vitro [8]): 0.648
- recovery (endogenous transporters): 64.8%
- Mean B-A % Recovery [9]: 59.10%
- CLint scaled (in vitro [12]; s9): 219 mL/min/kg
- half-life (in vitro [12]; s9): 0.417 h
- remaining at 2 h (in vitro [12]; s9): 4.6%
- Average % Stability [14]: 77.8%
- Mean A-B % Recovery [16]: 91.30%
- Mean B-A % Recovery [16]: 67.90%

SMILES: CN[C@H](CC(C)C)C(=O)N[C@H]1C(=O)N[C@@H](CC(N)=O)C(=O)N[C@H]2C(=O)N[C@H]3C(=O)N[C@H](C(=O)N[C@H](C(=O)O)c4cc(O)cc(O)c4-c4cc3ccc4O)[C@H](O)c3ccc(c(Cl)c3)Oc3cc2cc(c3O[C@@H]2O[C@H](CO)[C@@H](O)[C@H](O)[C@H]2O[C@H]2C[C@](C)(N)[C@H](O)[C@H](C)O2)Oc2ccc(cc2Cl)[C@H]1O [Vancomycin, reference compound]
- reduction in S. aureus kidney burden ([6]; vancomycin alone, 110 mg/kg sc twice daily): ~ 4 log
- reduction in S. aureus kidney burden ([7]; vancomycin alone, 110 mg/kg sc twice daily days 1-3, NRS384, day 4): 2–3 log
- hematology changes (red cell mass decrease, neutrophil decrease, platelet increase) (Sprague Dawley rats; males given vancomycin alone 110 mg/kg/day, end of treatment): also noted in males given vancomycin alone
- body weight, body weight gains, food consumption changes (Sprague Dawley rats; rat, IV QD 14 days, alone or in combination with vancomycin): no body weight, body weight gains, or food consumption changes
